Data published in patent US6416987B1, “Mutants of thymidylate synthase and uses thereof” (Sloan Kettering Institute for Cancer Research, priority 1997, dated 2002).
Like-named read-outs stand apart in the source and are kept apart here. Each block holds one molecule with its values, some of them ahead of it.

How the values were obtained:
Normal Bone Marrow cells = assay: CFU-GM assay, Normal Bone Marrow (retroviral vector study); format: cell-based, murine; conditions: 10 days
Description: (§1) The following tables 15-17 summarize additional proof that these mutants confer resistance to chemotherapeutic agents by increasing the number of drug resistant CFU-GM colonies formed by murine bone marrow cells infected with retroviral vectors containing these mutant TS cDNAs.

[1] = tested on: murine bone marrow cells infected with G52S mut-TS vector; assay: CFU-GM assay, marrow infected with G52S mut-TS retroviral vector; format: cell-based; conditions: 10 days
Description: as §1

[2] = tested on: murine bone marrow cells infected with Wt TS vector; assay: CFU-GM assay, marrow infected with Wt TS retroviral vector; format: cell-based; conditions: 10 days
[3] = target: TS-negative FSthy21 cells transfected with wild-type human TS cDNA (Homo sapiens, UniProt P04818, P2L, cells depend on it); assay: Growth inhibition assay (alamar Blue), TS-negative cells transfected with wild-type human TS cDNA; format: cell-based, mouse; conditions: FdUrd, 7-day exposure, read-out: IC50 values
TS-negative FSthy21 cells transfected with wild-type human TS cDNA, sequence (P04818 whole entry P2L): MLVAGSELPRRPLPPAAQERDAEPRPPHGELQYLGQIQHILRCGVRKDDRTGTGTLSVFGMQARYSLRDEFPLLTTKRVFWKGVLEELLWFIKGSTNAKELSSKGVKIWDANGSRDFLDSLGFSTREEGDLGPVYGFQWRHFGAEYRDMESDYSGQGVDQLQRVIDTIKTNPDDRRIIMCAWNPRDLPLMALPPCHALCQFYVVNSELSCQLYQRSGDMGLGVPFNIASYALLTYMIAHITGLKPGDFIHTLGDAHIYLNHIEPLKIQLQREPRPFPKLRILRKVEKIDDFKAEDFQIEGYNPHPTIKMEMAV

[4] = tested on: TS-negative FSthy21 cells transfected with F225Y mutant human TS cDNA; format: cell-based, mouse; conditions: FdUrd; F225Y/clone (1) vs wild-type clone (1)
[5] = tested on: TS-negative FSthy21 cells transfected with F225L mutant human TS cDNA; format: cell-based, mouse; conditions: FdUrd; F225L/clone (3) vs wild-type clone (1)
[6] = tested on: TS-negative FSthy21 cells transfected with G52S mutant human TS cDNA; format: cell-based, mouse
[7] = tested on: TS-negative FSthy21 cells transfected with L221S mutant human TS cDNA; format: cell-based, mouse; conditions: FdUrd; L221S/clone (2) vs wild-type clone (1)
[8] = tested on: TS-negative FSthy21 cells transfected with K47E mutant human TS cDNA; format: cell-based, mouse; conditions: FdUrd; K47E/clone (2) vs wild-type clone (1)
[9] = tested on: TS-negative FSthy21 cells transfected with D49G mutant human TS cDNA; format: cell-based, mouse
[10] = tested on: TS-negative FSthy21 cells transfected with I108A mutant human TS cDNA; assay: Growth inhibition assay (alamar Blue), I108A transfectants; conditions: for Ratio of IC50 values for mutant/wt cells: FdUrd; for resistance, IC50 values greater than wild-type transfectants: I108A transfectants vs wild-type transfectants
Description: (§2) The mouse TS-negative FSthy21 cells were used as the host for DNA transfections. This cell line, which is a TS-deficient derivative of mouse FM3A cells, was routinely maintained in MEM medium supplemented with 10% fetal bovine serum and 10×10^−5 M thymidine. Transfections were performed by DOTAP, using 10 μg of DNA/culture. Four days after transfection, cells were placed in selective medium, which contain no thymidine and reduced folate. Colonies having the ability to grow in the absence of thymidine were pooled and propagated as a mass culture.
(§3) Logarithmically growing suspension mouse TS-20 negative FSthy21 cells transfected with wild-type or variant human TS cDNA were seeded in 96-well plates at 1,000 cells/well in 180 μl of complete medium. […] Cell viability was measured by the alamar Blue™ assay. This method incorporates an oxidation-reduction (REDOX) indicator that both fluoresces and changes color in response to chemical reduction of growth medium resulting from cell growth. To above 96-well cultured cells, 25 μl of Alamar Blue (Alamar, Sacramento, Calif.) (10% of incubation volume) were added according to the manufacturer's instructions. The culture 96-well plates were then incubated at 37° C. for 4 hours. Viable cells induce chemical reduction of the media which results in a change in REDOX color from blue to red. The intensity of red color (and fluoresces) is proportional to the viable cells. After incubation, fluorescence is was read at 530-560 nm excitation wavelength and 590 nm emission wavelength by an automated plate reader (model EL340; Bio-Tek). Drug concentrations needed to reduce cell growth by 50% (IC50 values) were determined graphically by plotting of cell growth verses inhibitor concentration.
(§4) The effect of three antifolates and FdUrd on the growth characteristics of transfectants that stably express various TS proteins was evaluated by cytotoxicity studies. Cell growth was measured by the alamar blue assay. IC50 values were calculated as the concentration of inhibitor required to inhibit growth by 50% compared to wild-type transfected cells grown under identical conditions.

[11] = target: TS-negative FSthy21 cells transfected with I108A mutant human TS cDNA (Homo sapiens, UniProt P04818, P2L/I108A, cells depend on it); assay: as above; conditions: read-out: IC50 values, FdUrd, 7-day exposure
TS-negative FSthy21 cells transfected with I108A mutant human TS cDNA (Homo sapiens, UniProt P04818, P2L/I108A, cells depend on it), sequence (P04818 whole entry P2L/I108A): as the sequence (P04818 whole entry P2L) above, with I108A counted along it
Description: as §2, §3, §4

[12] = tested on: TS-negative FSthy21 cells transfected with I108F mutant human TS cDNA; format: cell-based, mouse; conditions: FdUrd; 1108F/clone (2) vs wild-type clone (1)
[13] = tested on: TS-negative FSthy21 cells transfected with L221I mutant human TS cDNA; format: cell-based, mouse; conditions: FdUrd; L221I/clone (1) vs wild-type clone (1)
[14] = tested on: TS-negative FSthy21 cells transfected with F225W mutant human TS cDNA; format: cell-based, mouse; conditions: for resistance, IC50 values greater than wild-type transfectants: F225W transfectants vs wild-type transfectants
[15] = tested on: TS-negative FSthy21 cells transfected with L221A mutant human TS cDNA; format: cell-based, mouse; conditions: FdUrd; L221A/clone (2) vs wild-type clone (1)
HT1080 cells = assay: EMS sensitivity of HT1080 cells (colony formation); format: cell-based; conditions: Homo sapiens, HT-1080; 400 μg/ml EMS, 18 hr exposure
Description: HT1080 cells were seeded into 6-well plates (100-300 cells/well). After overnight incubation to allow cell attachment, The cells were exposed with EMS for 18 hours, washed three times, and then incubated with EMS-free medium for a further 14 days. The range of EMS concentration tested was 100 to 1000 μg of EMS/ml of culture medium. Colonies formed (50 cells) were stained with crystal violet and counted. The concentration of EMS used for the random mutagenesis experiments was determined based on the number of colonies obtained in the EMS-treated test versus EMS concentrations (Sega, 1984; Fanin et al., 1993).

Compound: O=c1[nH]cc(F)c(=O)[nH]1 [5-FU, 5-fluorouracil]
CFU-C (Normal Bone Marrow cells; 10^−5 M 5-FU): 0
CFU-C (Normal Bone Marrow cells; 10^−6 M 5-FU): 16
CFU-C, % in parentheses (Normal Bone Marrow cells; 10^−6 M 5-FU): 10%
HPPCFU-C (Normal Bone Marrow cells; 10^−6 M 5-FU): 0
CFU-C ([1]; 10^−5 M 5-FU): 10
CFU-C, % in parentheses ([1]; 10^−5 M 5-FU): 6%
CFU-C ([1]; 10^−6 M 5-FU): 117
CFU-C, % in parentheses ([1]; 10^−6 M 5-FU): 72%
HPPCFU-C ([1]; 10^−6 M 5-FU): 21
HPPCFU-C, % in parentheses ([1]; 10^−6 M 5-FU): 40%
CFU-C ([2]; 10^−5 M 5-FU): 0
CFU-C ([2]; 10^−6 M 5-FU): 91
CFU-C, % in parentheses ([2]; 10^−6 M 5-FU): 54%
HPPCFU-C ([2]; 10^−6 M 5-FU): 6
HPPCFU-C, % in parentheses ([2]; 10^−6 M 5-FU): 14%

GI50 ([3]; wild-type/clone (1) [161-1]): 0.029 ± 0.0003 nM
GI50 ([3]; wild-type/clone (2) [161-2]): 0.0896 ± 0.0062 nM
GI50 ([3]; wild-type/clone (3) [161-3]): 0.0286 ± 0.0002 nM
Ratio of IC50 values for mutant/wt cells [4]: 1.0(1)
Ratio of IC50 values for mutant/wt cells [5]: 5.7(1)
Ratio of IC50 values for mutant/wt cells ([6]; FdUrd, G52S/clone (3) vs wild-type clone (1)): 97(1)
resistance, IC50 values greater than wild-type transfectants ([6]; G52S transfectants vs wild-type transfectants): 97 fold
Ratio of IC50 values for mutant/wt cells [7]: 1.2(1)
Ratio of IC50 values for mutant/wt cells [8]: 5.7(1)
resistance, IC50 values greater than wild-type transfectants ([9]; D49G transfectants vs wild-type transfectants): 26 fold
Ratio of IC50 values for mutant/wt cells ([9]; FdUrd, D49G/clone (1) vs wild-type clone (1)): 26(1)
GI50 ([11]; 1108A/clone (1) [175-1]): 1.4 ± 0.19 nM
GI50 ([11]; 1108A/clone (2) [175-2]): 1.05 ± 0.18 nM
GI50 ([11]; 1108A/clone (3) [175-3]): 1.37 ± 0.25 nM
Ratio of IC50 values for mutant/wt cells [12]: 6.1(1)
Ratio of IC50 values for mutant/wt cells [13]: 13(1)
resistance, IC50 values greater than wild-type transfectants [14]: 25 fold
Ratio of IC50 values for mutant/wt cells ([14]; FdUrd, F225W/clone (2) vs wild-type clone (1)): 25(1)
Ratio of IC50 values for mutant/wt cells [15]: 4.0(1)
Compound: O=c1[nH]c(=O)n([C@H]2C[C@H](O)[C@@H](CO)O2)cc1F [FdUrd, 5-fluoro-2′-deoxyuridine]
Ratio of IC50 values for mutant/wt cells ([10]; 1108A/clone (1) vs wild-type clone (2)): 16(2)^2
Ratio of IC50 values for mutant/wt cells ([10]; 1108A/clone (2) vs wild-type clone (2)): 12(2)
Ratio of IC50 values for mutant/wt cells ([10]; 1108A/clone (3) vs wild-type clone (2)): 15(2)
resistance, IC50 values greater than wild-type transfectants [10]: 12 fold

Compound: CCOS(C)(=O)=O [EMS, Ethylmethanesulfonate]
inhibition at 400 µg/mL (HT1080 cells): 80%

Compound: Cc1nc2ccc3ccc(CNc4ccc5c(c4)CN([C@@H](CCC(=O)O)C(=O)O)C5=O)cc3c2c(=O)[nH]1
resistance, IC50 values greater than wild-type transfectants [10]: 6 fold
resistance, IC50 values greater than wild-type transfectants [14]: 22 fold
